{"source": "patent US20250311727A1", "about": "“SUBSTITUTED 2-AMINOAZINES AND SALTS THEREOF, AND USE THEREOF AS HERBICIDAL ACTIVE SUBSTANCES” (BAYER AKTIENGESELLSCHAFT, priority 2022, published 2025)", "assay_type_in_all_cases": "in vivo", "key": {"Digitaria sanguinalis [1]": {"system": "Digitaria sanguinalis", "assay": "Post-emergence herbicidal efficacy at 320 g/ha, DIGSA", "details": "rated visually after about 3 weeks vs untreated controls, 100% = plants have died", "in_short": "(§1)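 Weeds grown from seed in sandy loam in the greenhouse were sprayed at the one-leaf stage, 2 to 3 weeks after sowing. WP or EC formulations were applied as aqueous spray with 0.5% additive at 600 L/ha. Injury was scored visually about 3 weeks later against untreated controls (0% = like control, 100% = dead).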"}, "Setaria viridis [2]": {"system": "Setaria viridis", "assay": "Pre-emergence herbicide efficacy at 80 g/ha, SETVI", "in_short": "(§2)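 Visual scoring after about 3 weeks in the greenhouse, expressed as percent activity against untreated controls, where 100% means dead plants and 0% means no difference. Treatment was applied pre-emergence to the covering soil over sown seeds, as WP or EC in water with 0.5% additive, 600 l/ha.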"}, "Veronica persica [3]": {"system": "Veronica persica", "assay": "Pre-emergence herbicide efficacy at 80 g/ha, VERPE", "in_short": "as §2"}, "Polygonum convolvulus [4]": {"system": "Polygonum convolvulus", "assay": "Post-emergence herbicidal efficacy at 80 g/ha, POLCO", "details": "rated visually after about 3 weeks vs untreated controls, 100% = plants have died", "text": "(§3) Unwanted plants/weeds: • ABUTH: Abutilon theophrasti • ALOMY: Alopecurus myosuroides • AMARE: Amaranthus retroflexus • DIGSA: Digitaria sanguinalis • ECHCG: Echinochloa crus-galli • KCHSC: Kochia scoparia • LOLRI: Lolium rigidum • MATIN: Matricaria inodora • POAAN: Poa annua • POLCO: Polygonum convolvulus • SETVI: Setaria viridis • STEME: Stellaria media • VERPE: Veronica persica • VIOTR: Viola tricolor A. Post-Emergence Herbicidal Efficacy at 320 g/ha\nSeeds of monocotyledonous and dicotyledonous weeds and crop plants were placed in sandy loam in plastic or organic planting pots, covered with soil and cultivated in a greenhouse under controlled growth conditions. 2 to 3 weeks after sowing, the test plants were treated at the one-leaf stage. The compounds of the invention, formulated in the form of wettable powders (WP) or as emulsion concentrates (EC), were then sprayed onto the green parts of the plants as aqueous suspension or emulsion with addition of 0.5% additive at a water application rate of 600 l/ha (converted). After the test plants had been kept in the greenhouse under optimum growth conditions for about 3 weeks, the activity of the preparations was rated visually in comparison to untreated controls. For example, 100% activity=the plants have died, 0% activity=like control plants. […]"}, "PHBPU": {"system": "PHBPU", "assay": "Post-emergence herbicidal efficacy at 80 g/ha, PHBPU", "details": "rated visually after about 3 weeks vs untreated controls, 100% = plants have died", "protocol": "Seeds of monocotyledonous and dicotyledonous weeds and crop plants were placed in sandy loam in plastic or organic planting pots, covered with soil and cultivated in a greenhouse under controlled growth conditions. 2 to 3 weeks after sowing, the test plants were treated at the one-leaf stage. The compounds of the invention, formulated in the form of wettable powders (WP) or as emulsion concentrates (EC), were then sprayed onto the green parts of the plants as aqueous suspension or emulsion with addition of 0.5% additive at a water application rate of 600 l/ha (converted). After the test plants had been kept in the greenhouse under optimum growth conditions for about 3 weeks, the activity of the preparations was rated visually in comparison to untreated controls. For example, 100% activity=the plants have died, 0% activity=like control plants. Tables B1 to B11 below show the effects of selected compounds of the general formula (I) according to Table 1 on various harmful plants and an application rate corresponding to 80 g/ha, which were obtained by the experimental procedure mentioned above."}, "Alopecurus myosuroides [5]": {"system": "Alopecurus myosuroides", "assay": "Post-emergence herbicidal efficacy at 320 g/ha, ALOMY", "details": "rated visually after about 3 weeks vs untreated controls, 100% = plants have died", "in_short": "as §1"}, "Abutilon theophrasti [6]": {"system": "Abutilon theophrasti", "assay": "Post-emergence herbicidal efficacy at 320 g/ha, ABUTH", "details": "rated visually after about 3 weeks vs untreated controls, 100% = plants have died", "in_short": "as §1"}, "Poa annua [7]": {"system": "Poa annua", "assay": "Post-emergence herbicidal efficacy at 320 g/ha, POAAN", "details": "rated visually after about 3 weeks vs untreated controls, 100% = plants have died", "in_short": "as §1"}, "Veronica persica [8]": {"system": "Veronica persica", "assay": "Post-emergence herbicidal efficacy at 320 g/ha, VERPE", "details": "rated visually after about 3 weeks vs untreated controls, 100% = plants have died", "in_short": "as §1"}, "Veronica persica [9]": {"system": "Veronica persica", "assay": "Pre-emergence herbicide efficacy at 320 g/ha, VERPE", "details": "scored visually after about 3 weeks vs untreated controls, 100% = plants have died", "in_short": "(§4)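 Sandy loam pots, seeds covered with soil; WP/EC formulation applied to soil surface, 0.5% additive, 600 L/ha water. Greenhouse ~3 weeks. Visual % damage vs untreated (0% = like control, 100% = dead).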"}, "Amaranthus retroflexus [10]": {"system": "Amaranthus retroflexus", "assay": "Pre-emergence herbicide efficacy at 80 g/ha, AMARE", "details": "scored visually after about 3 weeks vs untreated controls, 100% = plants have died", "in_short": "as §2"}, "Stellaria media [11]": {"system": "Stellaria media", "assay": "Post-emergence herbicidal efficacy at 320 g/ha, STEME", "details": "rated visually after about 3 weeks vs untreated controls, 100% = plants have died", "in_short": "as §1"}, "Kochia scoparia [12]": {"system": "Kochia scoparia", "assay": "Pre-emergence herbicide efficacy at 320 g/ha, KCHSC", "details": "scored visually after about 3 weeks vs untreated controls, 100% = plants have died", "in_short": "as §4"}, "Stellaria media [13]": {"system": "Stellaria media", "assay": "Pre-emergence herbicide efficacy at 320 g/ha, STEME", "details": "scored visually after about 3 weeks vs untreated controls, 100% = plants have died", "in_short": "as §4"}, "Abutilon theophrasti [14]": {"system": "Abutilon theophrasti", "assay": "Pre-emergence herbicide efficacy at 320 g/ha, ABUTH", "details": "scored visually after about 3 weeks vs untreated controls, 100% = plants have died", "in_short": "as §4"}, "Polygonum convolvulus [15]": {"system": "Polygonum convolvulus", "assay": "Pre-emergence herbicide efficacy at 80 g/ha, POLCO", "details": "scored visually after about 3 weeks vs untreated controls, 100% = plants have died", "in_short": "as §2"}, "Amaranthus retroflexus [16]": {"system": "Amaranthus retroflexus", "assay": "Post-emergence herbicidal efficacy at 80 g/ha, AMARE", "details": "rated visually after about 3 weeks vs untreated controls, 100% = plants have died", "in_short": "(§5)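 Greenhouse post-emergence spray, one-leaf stage (2–3 wk after sowing, sandy loam). Cpd as WP/EC, aqueous + 0.5% additive, 600 l/ha water. Visual rating ~3 wk post-treatment vs untreated; 0% = as control, 100% = plants dead.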"}, "Viola tricolor": {"system": "Viola tricolor", "assay": "Pre-emergence herbicide efficacy at 80 g/ha, VIOTR", "in_short": "as §2"}, "Veronica persica [17]": {"system": "Veronica persica", "assay": "Post-emergence herbicidal efficacy at 80 g/ha, VERPE", "details": "rated visually after about 3 weeks vs untreated controls, 100% = plants have died", "in_short": "as §5"}, "Kochia scoparia [18]": {"system": "Kochia scoparia", "assay": "Post-emergence herbicidal efficacy at 320 g/ha, KCHSC", "details": "rated visually after about 3 weeks vs untreated controls, 100% = plants have died", "in_short": "as §1"}, "Poa annua [19]": {"system": "Poa annua", "assay": "Pre-emergence herbicide efficacy at 320 g/ha, POAAN", "details": "scored visually after about 3 weeks vs untreated controls, 100% = plants have died", "in_short": "as §4"}, "Amaranthus retroflexus [20]": {"system": "Amaranthus retroflexus", "assay": "Post-emergence herbicidal efficacy at 320 g/ha, AMARE", "details": "rated visually after about 3 weeks vs untreated controls, 100% = plants have died", "in_short": "as §1"}, "Abutilon theophrasti [21]": {"system": "Abutilon theophrasti", "assay": "Post-emergence herbicidal efficacy at 80 g/ha, ABUTH", "details": "rated visually after about 3 weeks vs untreated controls, 100% = plants have died", "text": "as §3\n(§6) Seeds of monocotyledonous and dicotyledonous weeds and crop plants were placed in sandy loam in plastic or organic planting pots, covered with soil and cultivated in a greenhouse under controlled growth conditions. 2 to 3 weeks after sowing, the test plants were treated at the one-leaf stage. The compounds of the invention, formulated in the form of wettable powders (WP) or as emulsion concentrates (EC), were then sprayed onto the green parts of the plants as aqueous suspension or emulsion with addition of 0.5% additive at a water application rate of 600 l/ha (converted). After the test plants had been kept in the greenhouse under optimum growth conditions for about 3 weeks, the activity of the preparations was rated visually in comparison to untreated controls. For example, 100% activity=the plants have died, 0% activity=like control plants.\n(§7) Tables B1 to B11 below show the effects of selected compounds of the general formula (I) according to Table 1 on various harmful plants and an application rate corresponding to 80 g/ha, which were obtained by the experimental procedure mentioned above."}, "Alopecurus myosuroides [22]": {"system": "Alopecurus myosuroides", "assay": "Post-emergence herbicidal efficacy at 80 g/ha, ALOMY", "details": "rated visually after about 3 weeks vs untreated controls, 100% = plants have died", "text": "as §3, §6, §7"}, "Amaranthus retroflexus [23]": {"system": "Amaranthus retroflexus", "assay": "Pre-emergence herbicide efficacy at 320 g/ha, AMARE", "details": "scored visually after about 3 weeks vs untreated controls, 100% = plants have died", "in_short": "as §4"}, "Digitaria sanguinalis [24]": {"system": "Digitaria sanguinalis", "assay": "Pre-emergence herbicide efficacy at 320 g/ha, DIGSA", "details": "scored visually after about 3 weeks vs untreated controls, 100% = plants have died", "in_short": "as §4"}, "Setaria viridis [25]": {"system": "Setaria viridis", "assay": "Pre-emergence herbicide efficacy at 320 g/ha, SETVI", "details": "scored visually after about 3 weeks vs untreated controls, 100% = plants have died", "in_short": "as §4"}}}
{"molecule": "FC(F)c1cc(-c2ccccc2Nc2ncc(Cl)cn2)on1", "note": "[Example 1-31]", "values": [{"measurement": "Post-emergence efficacy at 320 g/ha against DIGSA in %", "setting": "Digitaria sanguinalis [1]", "value": 100, "unit": "%"}, {"measurement": "Pre-emergence efficacy against SETVI", "setting": "Setaria viridis [2]", "value": 100, "unit": "%"}, {"measurement": "Pre-emergence efficacy against VERPE", "setting": "Veronica persica [3]", "value": 90, "unit": "%"}, {"measurement": "Post-emergence efficacy at 80 g/ha against POLCO in %", "setting": "Polygonum convolvulus [4]", "value": 100, "unit": "%"}, {"measurement": "Post-emergence efficacy at 80 g/ha against PHBPU in %", "setting": "PHBPU", "value": 80, "unit": "%"}, {"measurement": "Post-emergence efficacy at 320 g/ha against ALOMY in %", "setting": "Alopecurus myosuroides [5]", "value": 100, "unit": "%"}, {"measurement": "Post-emergence efficacy at 320 g/ha against ABUTH in %", "setting": "Abutilon theophrasti [6]", "value": 100, "unit": "%"}, {"measurement": "Post-emergence efficacy at 320 g/ha against POAAN in %", "setting": "Poa annua [7]", "value": 100, "unit": "%"}, {"measurement": "Post-emergence efficacy at 320 g/ha against VERPE in %", "setting": "Veronica persica [8]", "value": 100, "unit": "%"}, {"measurement": "Pre-emergence efficacy at 320 g/ha against VERPE in %", "setting": "Veronica persica [9]", "value": 100, "unit": "%"}, {"measurement": "Pre-emergence efficacy at 80 g/ha against AMARE in %", "setting": "Amaranthus retroflexus [10]", "value": 100, "unit": "%"}, {"measurement": "Post-emergence efficacy at 320 g/ha against STEME in %", "setting": "Stellaria media [11]", "value": 100, "unit": "%"}, {"measurement": "Pre-emergence efficacy at 320 g/ha against KCHSC in %", "setting": "Kochia scoparia [12]", "value": 90, "unit": "%"}, {"measurement": "Pre-emergence efficacy at 320 g/ha against STEME in %", "setting": "Stellaria media [13]", "value": 100, "unit": "%"}, {"measurement": "Pre-emergence efficacy at 320 g/ha against ABUTH in %", "setting": "Abutilon theophrasti [14]", "value": 90, "unit": "%"}, {"measurement": "Pre-emergence efficacy at 80 g/ha against POLCO in %", "setting": "Polygonum convolvulus [15]", "value": 80, "unit": "%"}, {"measurement": "Post-emergence efficacy at 80 g/ha against AMARE in %", "setting": "Amaranthus retroflexus [16]", "value": 90, "unit": "%"}, {"measurement": "Pre-emergence efficacy against VIOTR", "setting": "Viola tricolor", "value": 90, "unit": "%"}, {"measurement": "Post-emergence efficacy at 80 g/ha against VERPE in %", "setting": "Veronica persica [17]", "value": 90, "unit": "%"}, {"measurement": "Post-emergence efficacy at 320 g/ha against KCHSC in %", "setting": "Kochia scoparia [18]", "value": 100, "unit": "%"}, {"measurement": "Pre-emergence efficacy at 320 g/ha against POAAN in %", "setting": "Poa annua [19]", "value": 100, "unit": "%"}, {"measurement": "Post-emergence efficacy at 320 g/ha against AMARE in %", "setting": "Amaranthus retroflexus [20]", "value": 100, "unit": "%"}, {"measurement": "Post-emergence efficacy at 80 g/ha against ABUTH in %", "setting": "Abutilon theophrasti [21]", "value": 80, "unit": "%"}, {"measurement": "Post-emergence efficacy at 80 g/ha against ALOMY in %", "setting": "Alopecurus myosuroides [22]", "value": 80, "unit": "%"}, {"measurement": "Pre-emergence efficacy at 320 g/ha against AMARE in %", "setting": "Amaranthus retroflexus [23]", "value": 100, "unit": "%"}, {"measurement": "Pre-emergence efficacy at 320 g/ha against DIGSA in %", "setting": "Digitaria sanguinalis [24]", "value": 100, "unit": "%"}, {"measurement": "Pre-emergence efficacy at 320 g/ha against SETVI in %", "setting": "Setaria viridis [25]", "value": 100, "unit": "%"}]}
